Source: US20240262917A1, “ANTIBODIES AGAINST ALK AND METHODS OF USE THEREOF” (Dana-Farber Cancer Institute, Inc., priority 2021, published 2024)

Columns and labels:
ALK ECD cleavage = assay: WB analysis of ALK ECD cleavage in cells treated with MMP inhibitors; format: cell-based; settings: for levels of the shed ALK ECD fragment in media from treated cells: indicated doses; for ALK ECD cleavage / shed fragment: 2 μM×12 hr.
Excerpt: (§1) (A) WB analysis of ALK expression in lysates and CM of NGP cells treated with the broad-spectrum protease inhibitor GM6001 and the MMP-9/13 inhibitor CAS 204140-01-2, at the indicated doses, for 12 hr. Untreated (U) or DMSO-treated cells were used as controls. The 8G7 N-terminal anti-ALK antibody was used to detect the shed fragment in CM and a C-terminal anti-ALK antibody used for the cell lysates in this and subsequent panels. β-actin is used as a loading control throughout this figure. (B) WB analysis of ALK expression in NGP cells treated with the MMP-9 (CTK8G1150) and MMP-3/12/13 (MMP408) inhibitors (2 μM×12 hr.). (C) WB analysis of ALK expression in the indicated NB cell lines treated with or without CTK8G1150 (2 μM for 12 hr.). (D) WB analysis of MMP-9 and ALK expression in NGP and BE (2)-C NB cells expressing either a control shRNA (shGFP) or two different shRNAs against MMP-9. (E) Crystal violet-stained images of NGP and IMR-5 NB cells treated with CTK8G1150 ([…]) or DMSO for 16 hr. and then subjected to transwell migration assays for 48 hr. (left). Scale bar, 100 μm. Quantification of migration (right) reported as means±SD; ** p<0.01, n=4. See also, FIG. 14.
(A) Immunoblot analyses of ALK expression in NGP cells after shRNA depletion of ADAM17 or ADAM10. Five separate shRNAs for ADAM17 and two shRNAs for ADAM10 were used. GADPH or β-actin were included as internal loading controls in this and subsequent panels. (B) Schematic illustration of the protease predicted to cleave ALK at the identified ECD cleavage site (Asn654-Leu655) generated using PROSPER and CleavPredict software. FIG. 14B discloses SEQ ID NO: 73. (C) WB analysis of ALK expression in the indicated lysates or conditioned media from cells engineered to express WT ALK and treated with or without the MMP-9 inhibitor, CTK8G1150 (2 μM for 12 hr.). Untreated cells or cells treated with DMSO were used as controls. The 8G7 N-terminal anti-ALK antibody was used to detect the shed fragment in conditioned medium (CM) and a C-terminal anti-ALK antibody was used for the cell lysates in this and subsequent panels. (D) WB analysis of ALK expression in NGP cells treated with the indicated concentrations of CTK8G1150 for 12 hr. (E) WB analysis of ALK expression in NGP cells treated with CTK8G1150 (2 μM) for the indicated time periods. (F) WB analysis of ALK following incubation of recombinant MMP-9 to ALK protein purified from 293T cells engineered to express WT or ALK LF655del.
Most receptor tyrosine kinases (RTKs) undergo ECD cleavage by proteases known as sheddases, that include matrix metalloproteinases (MMPs) and A disintegrin and metalloproteinases (ADAMs) (Kreitman et al., 2018). These zinc-dependent, membrane-associated or secreted proteases cleave cell surface transmembrane proteins that play a primary role in the degradation of extracellular matrix proteins, thus affecting multiple biological functions, such as cell signaling, growth factor activation and cytokine release. […] We next determined whether ALK could be cleaved by MMP-9 in vitro (FIG. 14, panel F). […] Finally, to confirm the role of MMP-9 in ALK cleavage, we genetically depleted this protease through shRNA knockdown in two NB cell lines [NGP and BE(2)-C], observing a significant decrease in the 140 kDa product resulting from inhibition of cleavage (FIG. 7, panel D). Depletion of MMP-2, by contrast, led to only a slight decrease in cleavage.
Cell lysates were prepared in NP-40 buffer (Invitrogen) containing complete protease inhibitor (Roche), phosphatase inhibitor (Roche) and phenylmethylsulfonyl fluoride (PMSF). Lysates were incubated on ice for 20 min and centrifuged at 16,000 g for 15 min at 4° C. Protein concentrations of the supernatants were determined with the DC protein assay kit (Bio-Rad). Protein samples were denatured using NuPAGE LDS sample buffer (Invitrogen) and NuPAGE sample reducing agent (Invitrogen). […]

NGP and IMR-5 NB cells = assay: Transwell migration assay after MMP-9 inhibitor treatment; format: cell-based, human; settings: CTK8G1150 (2 µM) 16 hr., transwell migration 48 hr.
Excerpt: as §1
Cell migration was measured using transwell chambers (Falcon; cell culture inserts with 8 μm pores) and a 24-well plate as the lower chamber. […]

ALK-positive NSCLC = settings: cited from earlier work
neuroblastoma = settings: human, in vivo; cited from earlier work

Structure (SMILES): COc1ccc(S(=O)(=O)N2CCN(C(=O)c3ccc(-c4ccccc4)cc3)CC2C(=O)NO)cc1 (centres unmarked) [CAS 204140-01-2]
- levels of the shed ALK ECD fragment in media from treated cells (ALK ECD cleavage; NGP cells, 12 hr.): caused a decrease in the levels of the shed ALK ECD fragment

Structure (SMILES): CCN(CC)Cc1cc(C)c(N(Cc2ccccc2)S(=O)(=O)c2ccc(OC)cc2)c(C(=O)NO)c1 [CTK8G1150]
- inhibition of ECD cleavage in cells engineered to overexpress WT ALK (ALK ECD cleavage; 293T and NIH3T3 cells, 2 μM for 12 hr.): significant inhibition of ECD cleavage
- ECD cleavage in endogenous WT ALK-expressing NB cell lines (ALK ECD cleavage; NGP NB cells and four additional NB cell lines, 2 μM for 12 hr.): inhibited ECD cleavage
- period over which ALK ECD cleavage disruption was maintained (ALK ECD cleavage; NGP cells, 2 μM): > 52 h
- ALK ECD cleavage / shed fragment (ALK ECD cleavage; NGP cells): produced a marked decrease in the shed fragment
- dose dependence of ALK ECD cleavage disruption (ALK ECD cleavage; NGP cells, indicated concentrations, 12 hr.): disrupted in a dose-dependent manner
- migration of NB cells that endogenously expressed WT ALK (NGP and IMR-5 NB cells): significantly suppressed the migration

Structure (SMILES): CNC(=O)[C@H](Cc1c[nH]c2ccccc12)NC(=O)[C@@H](CC(=O)NO)CC(C)C [GM6001]
- levels of the shed ALK ECD fragment in media from treated cells (ALK ECD cleavage; NGP cells, 12 hr.): caused a decrease in the levels of the shed ALK ECD fragment

Structure (SMILES): COC(=O)Nc1ccc2oc3cc(S(=O)(=O)N[C@@H](C(=O)O)C(C)C)ccc3c2c1 [MMP408]
- ALK ECD cleavage / shed fragment (ALK ECD cleavage; NGP cells): did not affect cleavage

Structure (SMILES): Cc1cc(Nc2ncc(Cl)c(Nc3ccccc3S(=O)(=O)C(C)C)n2)c(OC(C)C)cc1C1CCNCC1 [ceritinib]
- median duration of response (ALK-positive NSCLC): 16.6 months

Structure (SMILES): C[C@@H](Oc1cc(-c2cnn(C3CCNCC3)c2)cnc1N)c1c(Cl)ccc(F)c1Cl [crizotinib]
- durability of responses in neuroblastoma patients (neuroblastoma): has not shown durable responses
